Where two headings read alike, the source gives them in different places.
Key:
[1] = biological target: human CDK4 and genetically truncated (1-264) cyclin D3 (Homo sapiens, UniProt P11802); assay: Inhibition of CDK4/Cyclin D Retinoblastoma Kinase Activity; format: biochemical; details: for Ki: apparent Ki, CDK4/truncated cyclin D3, Rb fragment substrate, 25 μM ATP
How it was run: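 Apparent Ki values come from competitive or competitive tight-binding inhibition fits of background-corrected 32P/33P incorporation into His-tagged Rb fragment (386-928), captured on nitrocellulose. Reaction: 5 nM insect-cell-expressed human CDK4 with cyclin D3 (1-264), 25 μM ATP, pH 7.4 HEPES, 2% DMSO, 30° C., 20 min, extended to 60 min for tight-binding inhibitors.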

[2] = biological target: CDK2/Cyclin A (Homo sapiens, UniProt P24941); assay: Inhibition of CDK2/Cyclin A Retinoblastoma Kinase Activity; format: biochemical; details: for Ki: apparent Ki, CDK2/proteolyzed cyclin A, Rb fragment substrate, 25 μM ATP; for CDK2 % Inhibition At 0.03 μM: Table 2
How it was run: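 Radiometric filter-binding readout of phosphate transfer to an Rb substrate fragment by purified CDK2/truncated cyclin A at 10 or 19 nM. Run at pH 7.4 with 25 μM ATP, 30 °C, 60–75 min, linear rates; background without enzyme subtracted, Ki from competitive-inhibition models.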

[3] = tested on: HCT-116 cell line; assay: Inhibition of cell growth, tetrazolium salt (MTT) assay; format: cell-based; details: for IC50: Homo sapiens, HCT-116, 120 h, MTT, three to five days; for HCT-116 % Inhibition at 0.25 μM: 0.25 μM compound
How it was run: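 Growth inhibition is scored relative to cells receiving only 0.5% (v/v) DMSO. Plated cells rest 4 h, then take compound for three to five days at 37° C; MTT reduction to formazan is read at 540 nm.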

[4] = first HCT-116 column (c4), read-out: HCT-116 IC50
[5] = second HCT-116 column (c5), read-out: HCT-116 IC50
[6] = 0.1 μM compound, HCT-116, Table 4

Sequence of human CDK4 and genetically truncated (1-264) cyclin D3 (P11802 whole entry, the tested form may be a part): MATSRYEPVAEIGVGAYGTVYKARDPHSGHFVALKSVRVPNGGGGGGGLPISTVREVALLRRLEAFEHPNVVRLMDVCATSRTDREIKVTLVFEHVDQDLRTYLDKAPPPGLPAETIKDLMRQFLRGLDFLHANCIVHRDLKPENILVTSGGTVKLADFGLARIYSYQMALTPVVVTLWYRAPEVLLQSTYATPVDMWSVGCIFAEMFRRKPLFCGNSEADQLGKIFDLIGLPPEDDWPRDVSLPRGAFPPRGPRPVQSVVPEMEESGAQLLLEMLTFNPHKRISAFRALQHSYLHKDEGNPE
Sequence of human CDK4 and genetically truncated (1-264) cyclin D3 (P30281 1-264 partner): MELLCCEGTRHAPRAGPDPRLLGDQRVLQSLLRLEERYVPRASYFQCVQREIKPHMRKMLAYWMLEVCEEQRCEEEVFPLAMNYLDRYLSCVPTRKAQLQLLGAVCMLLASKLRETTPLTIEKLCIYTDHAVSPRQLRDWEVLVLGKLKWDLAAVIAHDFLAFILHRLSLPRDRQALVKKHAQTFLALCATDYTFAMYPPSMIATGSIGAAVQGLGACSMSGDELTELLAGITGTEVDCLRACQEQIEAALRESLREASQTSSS

SMILES: Nc1nc(NC2CCN(S(=O)(=O)CCCN3CCC3)CC2)sc1C(=O)c1c(F)cccc1F [Example K19, 1-{4-Amino-2-[1-(3-azetidin-1-yl-propane-1-sulfonyl)-piperidin-4-ylamino]-thiazol-5-yl}-1-(2,6-difluoro-phenyl)-methanone.]
- Ki [1]: 2 nM
- Ki [2]: 1.3 nM
- IC50 [3, 4]: 810 nM
- IC50 [3, 5]: > 5000 nM

SMILES: CCCCCOc1ccc(C(=O)N2CCC(Nc3nc(N)c(C(=O)c4c(F)cccc4F)s3)CC2)cc1 [Example R14]
- CDK4 % Inhibition at 0.03 μM ([1]; at 0.03 μM): 49%
- CDK2 % Inhibition at 0.03 μM ([2]; at 0.03 μM): 19%
- HCT-116 % Inhibition at 0.1 μM ([3]; HCT-116 cells, at 0.1 μM): 0%
- HCT-116 5 Inhibition at 0.25 μM ([3]; HCT-116 cells): 46

SMILES: CC(C)S(=O)(=O)c1csc(C(=O)N2CCC(Nc3nc(N)c(C(=O)c4c(F)cccc4F)s3)CC2)c1Cl [Example C5, (4-Amino-2-{1-[3-chloro-4-(propane-2-sulfonyl)-thiophene-2-carbonyl]-piperidin-4-ylamino}-thiazol-5-yl)-(2,6-difluoro-phenyl)-methanone]
- Ki [1]: 8 nM
- Ki [2]: 81 nM
- IC50 [3, 4]: 1900 nM
- IC50 [3, 5]: 4000 nM

SMILES: C[Si](C)(C)NC(=O)N1CCC(Nc2nc(N)c(C(=O)c3c(F)cccc3F)s2)CC1 [Example O2]
- CDK4 % Inhibition at 0.03 μM ([1]; 0.03 μM compound, Table 2): 6%
- CDK2 % Inhibition At 0.03 μM ([2]; 0.03 μM compound): 34%
- HCT-116 % Inhibition at 0.25 μM ([3]; HCT-116, Table 2): 0%

SMILES: Nc1nc(NC2CCN(C(=O)Nc3cc(Cl)nc(Cl)c3)CC2)sc1C(=O)c1c(F)cccc1F [Example O64]
- CDK4 % Inhibition at 0.03 μM ([1]; 0.03 μM compound, Table 2): 7%
- CDK2 % Inhibition At 0.03 μM ([2]; 0.03 μM compound): 32%
- HCT-116 % Inhibition at 0.25 μM ([3]; HCT-116, Table 2): 37%

SMILES: Nc1nc(NC2CCN(C(=O)Oc3ccc(Cl)cc3)CC2)sc1C(=O)c1c(F)cccc1F [Example C3, 4-[4-Amino-5-(2,6-difluoro-benzoyl)-thiazol-2-ylamino]-piperidine-1-carboxylic Acid 4-Chloro-phenyl Ester]
- Ki [1]: 3.7 nM
- Ki [2]: 17 nM
- IC50 ([3]; read-out: HCT-116 IC50, first HCT-116 column (c4)): 330 nM
- IC50 ([3]; read-out: HCT-116 IC50, second HCT-116 column (c5)): 1200 nM

SMILES: Nc1nc(NC2CCN(S(=O)(=O)CCN3CC=CC3)CC2)sc1C(=O)c1c(F)cccc1F [Example K36, (4-Amino-2-{1-[2-(2,5-dihydro-pyrrol-1-yl)-ethanesulfonyl]-piperidin-4-ylamino}-thiazol-5-yl)-(2,6-difluoro-phenyl)-methanone.]
- Ki [1]: 6.6 nM
- Ki [2]: 7.5 nM
- IC50 [3, 4]: 650 nM
- IC50 [3, 5]: 1900 nM

SMILES: CC(C)(C)c1ccc(S(=O)(=O)N2CCC(Nc3nc(N)c(C(=O)c4c(F)cccc4F)s3)CC2)cc1 [Example P22]
- CDK4 % Inhibition at 0.03 μM ([1]; 0.03 μM compound, Table 3): 38%
- CDK2 % Inhibition at 0.03 μM ([2]; 0.03 μM compound, Table 3): 29%
- HCT-116 % Inhibition at 0.1 μM ([3]; 0.1 μM compound, HCT-116, Table 3): 27%
- HCT-116 % Inhibition at 0.25 μM ([3]; HCT-116, Table 3): 31%

SMILES: COc1ccc(CC(=O)N2CCC(Nc3nc(N)c(C(=O)c4c(F)cccc4F)s3)CC2)cc1OC [Example Q72]
- CDK4 % Inhibition at 0.03 μM ([1]; 0.03 μM compound, Table 4): 43%
- CDK2 % Inhibition at 0.03 μM ([2]; 0.03 μM compound, Table 4): 18%
- HCT-116 % Inhibition at 0.1 μM [3, 6]: 8%
- HCT-116 % Inhibition at 0.25 μM ([3]; HCT-116, Table 4): 29%

SMILES: Nc1nc(NC2CCN(C(=O)c3ccccc3)CC2)sc1C(=O)c1c(F)cccc1F [Example Q9]
- CDK4 % Inhibition at 0.03 μM ([1]; 0.03 μM compound, Table 4): 52%
- CDK2 % Inhibition at 0.03 μM ([2]; 0.03 μM compound, Table 4): 13%
- HCT-116 % Inhibition at 0.1 μM [3, 6]: 0%
- HCT-116 % Inhibition at 0.25 μM ([3]; HCT-116, Table 4): 36%

SMILES: N#Cc1ccc(S(=O)(=O)N2CCCC(Nc3nc(N)c(C(=O)c4c(F)cccc4F)s3)C2)cc1 (stereo not shown) [Example F35, 4-{3-[4-Amino-5-(2,6-difluoro-benzoyl)-thiazol-2-ylamino]-piperidine-1-sulfonyl}-benzonitrile]
- Ki [1]: 340 nM
- Ki [2]: 76 nM
- IC50 [3, 4]: 1600 nM
- IC50 [3, 5]: 2600 nM

SMILES: Nc1nc(NC2CCN(C(=O)Nc3ccccc3Br)CC2)sc1C(=O)c1c(F)cccc1F [Example O4]
- CDK4 % Inhibition at 0.03 μM ([1]; 0.03 μM compound, Table 2): 10%
- CDK2 % Inhibition At 0.03 μM ([2]; 0.03 μM compound): 27%
- HCT-116 % Inhibition at 0.25 μM ([3]; HCT-116, Table 2): 4%

SMILES: CC(NC(=O)N1CCC(Nc2nc(N)c(C(=O)c3c(F)cccc3F)s2)CC1)c1ccccc1 (stereo not shown) [Example O28]
- CDK4 % Inhibition at 0.03 μM ([1]; 0.03 μM compound, Table 2, 0.03 µM): 12%
- CDK2 % Inhibition At 0.03 μM ([2]; 0.03 μM compound, 0.03 µM): 27%
- HCT-116 % Inhibition at 0.25 μM ([3]; HCT-116, Table 2, 0.25 µM): 43%

SMILES: COc1ccc(Oc2ccc([N+](=O)[O-])cc2C(=O)N2CCC(Nc3nc(N)c(C(=O)c4c(F)cccc4F)s3)CC2)cc1 [Example R40]
- CDK4 % Inhibition at 0.03 μM ([1]; at 0.03 μM): 66%
- CDK2 % Inhibition at 0.03 μM ([2]; at 0.03 μM): 41%
- HCT-116 % Inhibition at 0.1 μM ([3]; HCT-116 cells, at 0.1 μM): 0%
- HCT-116 5 Inhibition at 0.25 μM ([3]; HCT-116 cells): 43

Source: patent publication US20050101595A1, “N-containing cycloalkyl-substituted amino-thiazole derivatives and pharmaceutical compositions for inhibiting cell proliferation and methods for their use” (PFIZER INC., priority 2003, published 2005)
